TGI and GI50 data for 16 molecules are collected here from PubChem BioAssay (NCI).

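Step 1: Grow cells in 96-well plates. Step 2: Expose to compound for 48 hours at 5 concentrations. Step 3: Interpolate endpoints linearly; if unreached, use highest concentration. GI50 marks 50% less growth. At the TGI there is no net growth.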

Some test systems named below: SNB-75 CNS; CCRF-CEM leukemia; NCI-H460 lung; ACHN renal; OVCAR-3 ovarian; OVCAR-5 ovarian; MOLT-4 leukemia; HOP-62 NSCLC; PC-3 prostate; MDA-MB-435.
Common to all, as to test: NCI anticancer screen, dose series, 48 h

Take `COc1c(C)cc2c(C(C)C)c(O)c(O)c(C=O)c2c1O`: the TGI in the experiment on SNB-75 CNS is 90.2 µM; in the experiment on CCRF-CEM leukemia it was above 100 µM; with NCI-H460 lung, above 100 µM; in the experiment with ACHN renal, 93 µM; with OVCAR-3 ovarian it was 49.5 µM; with OVCAR-5 ovarian, 86 µM. This molecule had a TGI in the experiment with MOLT-4 leukemia above 100 µM.

Take `COc1cc(-c2nccc3cc(OC)c(OC)cc23)ccc1O`: the TGI in the experiment on SNB-75 CNS, in the experiment with CCRF-CEM leukemia, in the experiment with NCI-H460 lung, in the experiment with ACHN renal, in the experiment with OVCAR-3 ovarian and in the experiment on OVCAR-5 ovarian was above 100 µM throughout. The TGI in the experiment with MOLT-4 leukemia is 91.8 µM; with HOP-62 NSCLC it was above 100 µM.

Regarding `N#Cc1ccc(Cc2ccccn2)cc1Cl`, the TGI in the experiment with CCRF-CEM leukemia, in the experiment with NCI-H460 lung, in the experiment with ACHN renal, with OVCAR-5 ovarian, in the experiment with MOLT-4 leukemia and with HOP-62 NSCLC was above 100 µM throughout.

As for `CCOC(=O)C(=O)Nc1nc2c(OCC)cccc2s1`, the TGI in the experiment with SNB-75 CNS, in the experiment with NCI-H460 lung, in the experiment on ACHN renal, in the experiment on OVCAR-3 ovarian, with OVCAR-5 ovarian and in the experiment with MOLT-4 leukemia was above 100 µM throughout. In the experiment on HOP-62 NSCLC, this molecule displayed a TGI above 100 µM.

For `CC(CCC[C@H](C)CO)[C@H]1[C@@H](O)C(O)C2[C@@H]3C[C@@H](O)C4(O)C[C@@H](O)CC[C@]4(C)C3CC[C@@]21C` (some centres undefined), the TGI with SNB-75 CNS, in the experiment with CCRF-CEM leukemia, in the experiment on NCI-H460 lung, in the experiment on ACHN renal, with OVCAR-3 ovarian and in the experiment on MOLT-4 leukemia was above 100 µM in each case. In the experiment with HOP-62 NSCLC, this molecule had a TGI above 100 µM.

On to `Cc1ccc(-c2nc3ccccc3c(=O)n2NCC2(O)OCC(O)C(O)C2O)cc1` (centres undefined), for which the TGI in the experiment with SNB-75 CNS, with CCRF-CEM leukemia, with NCI-H460 lung, with ACHN renal, in the experiment with OVCAR-3 ovarian and in the experiment on OVCAR-5 ovarian was above 100 µM throughout. Also, the TGI in the experiment on MOLT-4 leukemia was above 100 µM.

Take `Cc1nc2c(c(N3CCCc4ccccc43)n1)CCC2`: the GI50 in the experiment with PC-3 prostate was below 0.01 µM; in the experiment on CCRF-CEM leukemia, below 0.01 µM; with NCI-H460 lung, below 0.01 µM; in the experiment on ACHN renal, below 0.01 µM; in the experiment with OVCAR-5 ovarian it was 1.7 µM; in the experiment with MOLT-4 leukemia it was below 0.01 µM. Also, in the experiment on HOP-62 NSCLC, the GI50 is below 0.01 µM. In addition, the TGI in the experiment with PC-3 prostate is above 100 µM; with CCRF-CEM leukemia, above 100 µM; in the experiment with NCI-H460 lung, above 100 µM; in the experiment on ACHN renal, above 100 µM; in the experiment with OVCAR-5 ovarian it was above 100 µM; with MOLT-4 leukemia, 3.07 µM. The TGI in the experiment on HOP-62 NSCLC is above 100 µM.

Regarding `CC(CC(=O)N1C(=O)C(C)(C)[C@@H](O)[C@H]1CC(C)C(Cl)(Cl)Cl)C(Cl)(Cl)Cl` (some centres undefined), the TGI in the experiment with SNB-75 CNS, in the experiment on CCRF-CEM leukemia, with NCI-H460 lung, with ACHN renal, in the experiment with OVCAR-3 ovarian and in the experiment on MOLT-4 leukemia was above 100 µM each time. This molecule displayed a TGI in the experiment on HOP-62 NSCLC above 100 µM.

As to `C[C@]12CCC(=O)C(OC(=O)c3ccc([N+](=O)[O-])cc3)=C1CCC2=O`, the TGI with SNB-75 CNS, with CCRF-CEM leukemia, with NCI-H460 lung, with ACHN renal, with OVCAR-3 ovarian and in the experiment on OVCAR-5 ovarian was above 100 µM in each case. The TGI in the experiment with MOLT-4 leukemia and in the experiment with HOP-62 NSCLC was above 100 µM throughout.

For the molecule `CO[C@@H]1C=C[C@@]23c4cc5c(cc4CN(C[C@@H]2O)[C@H]3C1)OCO5`, the TGI in the experiment on SNB-75 CNS is 50.6 µM; with CCRF-CEM leukemia, 47.7 µM; with NCI-H460 lung, above 100 µM; in the experiment on ACHN renal, above 100 µM; with OVCAR-3 ovarian it was above 100 µM; in the experiment on OVCAR-5 ovarian, above 100 µM. In addition, the TGI in the experiment on MOLT-4 leukemia stood at 69.5 µM.

Consider `COc1cc(Oc2c(C)c(Cl)c(OC)c(Cl)c2OC)c2c(c1Cl)COC2=O`, for which the TGI in the experiment on SNB-75 CNS was above 100 µM; with CCRF-CEM leukemia, above 100 µM; in the experiment with NCI-H460 lung it was above 100 µM; in the experiment with ACHN renal, 62.9 µM; in the experiment with MDA-MB-435, above 100 µM; with OVCAR-5 ovarian, above 100 µM. The molecule also returned a TGI in the experiment on MOLT-4 leukemia of 69.1 µM.

`CCOC(=O)C(=O)C=P(c1ccccc1)(c1ccccc1)c1ccccc1`: the TGI in the experiment on SNB-75 CNS, in the experiment on CCRF-CEM leukemia, in the experiment on NCI-H460 lung, with ACHN renal, in the experiment on OVCAR-3 ovarian and in the experiment with OVCAR-5 ovarian was above 100 µM throughout. For the same molecule, the TGI in the experiment with MOLT-4 leukemia and with HOP-62 NSCLC was above 100 µM each time.

With `CC(=O)OC(CC1(C)C(C)CCC23COC(=O)C2=CCCC31)c1ccoc1` (centres undefined), the TGI in the experiment on SNB-75 CNS is 78.5 µM; with CCRF-CEM leukemia it was 80.3 µM; with NCI-H460 lung it was above 100 µM; with ACHN renal, above 100 µM; in the experiment with OVCAR-3 ovarian, 46.1 µM; with OVCAR-5 ovarian, 67.4 µM. The values for the TGI in the experiment with MOLT-4 leukemia and with HOP-62 NSCLC were 90.3 µM and 85.3 µM, respectively.

Turning to `CCOC(=O)Cn1c2ccccc2c(=O)c2cc(C)c(C)c(C#N)c21`, the TGI was 66.1 µM with SNB-75 CNS; above 100 µM in the experiment with CCRF-CEM leukemia; above 100 µM in the experiment with NCI-H460 lung; above 100 µM with ACHN renal; above 100 µM in the experiment on OVCAR-3 ovarian; above 100 µM with OVCAR-5 ovarian. The TGI in the experiment on MOLT-4 leukemia and with HOP-62 NSCLC was above 100 µM in each case.

In the case of `Cc1cccc(-n2c(N)c(-c3nc4ccccc4[nH]3)sc2=S)c1`, the TGI is above 100 µM with SNB-75 CNS; above 100 µM in the experiment with CCRF-CEM leukemia; 99 µM in the experiment on ACHN renal; 62.1 µM in the experiment on OVCAR-3 ovarian; above 100 µM in the experiment with OVCAR-5 ovarian; 54.6 µM with MOLT-4 leukemia. In the experiment with HOP-62 NSCLC, the TGI turned out to be 78.9 µM.

For the molecule `COC(OC)c1cc2c(cc1C=O)OCO2`, the TGI is 54.7 µM in the experiment on SNB-75 CNS; above 100 µM with CCRF-CEM leukemia; above 100 µM with NCI-H460 lung; above 100 µM with ACHN renal; above 100 µM with OVCAR-3 ovarian; above 100 µM in the experiment with OVCAR-5 ovarian. The TGI in the experiment with MOLT-4 leukemia and in the experiment with HOP-62 NSCLC was above 100 µM each time.
